Converted amounts (≈) assume the structure as drawn. Like-named read-outs stand apart in the source and are kept apart here.
How the values were obtained:
Type in all cases: cell-based
S. aureus = assay: Serial twofold agar dilution (Mueller-Hinton agar), S. aureus; conditions: Staphylococcus aureus
Protocol: (§1) The Minimum Inhibitory Concentrations (MIC) for sodium 6-[D-(-)-α-phenyl-α-(7-hydroxy-4-oxo-4H-pyrimido[1,2-b]pyridazin-3-ylcarboxamido)acetamido]penicillanate (BB-P598) and sulbenicillin were determined by the serial twofold agar dilution method using Steers' apparatus on Mueller-Hinton agar plates against 31 test organisms for the primary screening (Table 1) and also against 61 strains of Pseudomonas aeruginosa for the secondary evaluation (Table 2).
(§2) Minimum Inhibitory Concentrations (MIC) for sodium 6-[D-(-)-α-phenyl-α-(7-hydroxy-4-oxo-4H-pyrimido[1,2-b]pyridazin-3-ylcarboxamido)acetamido]pencillanate (BB-P598), sodium 6-[D-(-)-α-(4-hydroxyphenyl)-α-(7-hydroxy-4-oxo-4H-pyrimido[1,2-b]pyridazin-3-ylcarboxamido)acetamido]-penicillanate (BB-P642) and carbenicillin were determined by the serial twofold agar dilution method using Steers' apparatus on Mueller-Hinton agar plates against 31 tests organisms (Table 8) and also against 61 strains of Pseudomonas aeruginosa (Table 9). In terms of mean % relative activity compared with carbenicillin, compounds BB-B598 and BB-P642 were 856% and 1319% as active as carbenicillin against the 61 Pseudomonas strains of Table 9.

E. coli = assay: Serial twofold agar dilution (Mueller-Hinton agar), E. coli; conditions: Escherichia coli
Protocol: as §1, §2

K. pneumoniae = assay: Serial twofold agar dilution (Mueller-Hinton agar), K. pneumoniae; conditions: Klebsiella pneumoniae, K. pneumoniae A9977, Table 1, read-out: MIC
Protocol: as §1, §2

Klebsiella sp. = assay: Serial twofold agar dilution (Mueller-Hinton agar), Klebsiella sp.
Protocol: as §1, §2

E. cloacae = assay: Serial twofold agar dilution (Mueller-Hinton agar), E. cloacae; conditions: Enterobacter cloacae
Protocol: as §1, §2

P. mirabilis = assay: Serial twofold agar dilution (Mueller-Hinton agar), P. mirabilis; conditions: Proteus mirabilis, P. mirabilis A9900; Mueller-Hinton agar; Table 1; read-out: MIC
Protocol: as §1, §2

P. vulgaris = assay: Serial twofold agar dilution (Mueller-Hinton agar), P. vulgaris; conditions: Proteus vulgaris, P. vulgaris A9539, Table 1, read-out: MIC
Protocol: as §1, §2

P. morganii = assay: Serial twofold agar dilution (Mueller-Hinton agar), P. morganii; conditions: Morganella morganii, P. morganii A9553, Table 1, read-out: MIC
Protocol: as §1, §2

S. enteritidis = assay: Serial twofold agar dilution (Mueller-Hinton agar), S. enteritidis; conditions: Salmonella enterica, S. enteritidis A9531, Table 1, read-out: MIC
Protocol: as §1, §2

S. marcescens = assay: Serial twofold agar dilution (Mueller-Hinton agar), S. marcescens; conditions: Serratia marcescens, S. marcescens A20019, Table 1
Protocol: as §1, §2

Pseudomonas aeruginosa = assay: Serial twofold agar dilution (Mueller-Hinton agar), P. aeruginosa; conditions: Pseudomonas aeruginosa
Protocol: as §1, §2

Pseudomonas sp. = assay: Serial twofold agar dilution (Mueller-Hinton agar), Pseudomonas sp.; conditions: Pseudomonas sp. A20358, Table 1, read-out: MIC
Protocol: as §1, §2

CC1(C)S[C@@H]2[C@H](NC(=O)C(c3ccccc3)S(=O)(=O)O)C(=O)N2[C@H]1C(=O)O (stereo partly shown) [Sulbenicillin, reference compound]
MIC (S. aureus; S. aureus BX-1633 A15097, Table 1, read-out: MIC): 12.5 µg/mL (≈ 30.2 µM) | MIC (S. aureus; S. aureus BX-1633 A20701, Table 1, read-out: MIC): 50 µg/mL (≈ 121 µM) | MIC (S. aureus; S. aureus Smith A9537, Table 1, read-out: MIC): 1.6 µg/mL (≈ 3.86 µM) | MIC (E. coli; E. coli Juhl A9435, Table 1): 12.5 µg/mL (≈ 30.2 µM) | MIC (E. coli; E. coli Juhl A9844, Table 1, read-out: MIC): 0.8 µg/mL (≈ 1.93 µM) | MIC (E. coli; E. coli Juhl A15119, Table 1, read-out: MIC): 3.1 µg/mL (≈ 7.48 µM) | MIC (E. coli; E. coli Juhl A20366, Table 1, read-out: MIC): > 100 µg/mL | MIC (E. coli; E. coli Juhl A20520, Table 1, read-out: MIC): 6.3 µg/mL (≈ 15.2 µM) | MIC (E. coli; E. coli Juhl A20664, Table 1, read-out: MIC): 3.1 µg/mL (≈ 7.48 µM) | MIC (E. coli; E. coli Juhl A20732, Table 1, read-out: MIC): > 100 µg/mL | MIC (E. coli; E. coli Juhl A20898, Table 1, read-out: MIC): > 100 µg/mL | MIC (E. coli; E. coli NIHJ, Table 1, read-out: MIC): 0.8 µg/mL (≈ 1.93 µM) | MIC (K. pneumoniae): 3.1 µg/mL (≈ 7.48 µM) | MIC (Klebsiella sp.): 12.5 µg/mL (≈ 30.2 µM) | MIC (E. cloacae; E. cloacae A9656, Table 1): 6.3 µg/mL (≈ 15.2 µM) | MIC (E. cloacae; E. cloacae A9657, Table 1): 100 µg/mL (≈ 241 µM) | MIC (E. cloacae; E. cloacae A9659, Table 1): 12.5 µg/mL (≈ 30.2 µM) | MIC (P. mirabilis): 0.8 µg/mL (≈ 1.93 µM) | MIC (P. vulgaris): 1.6 µg/mL (≈ 3.86 µM) | MIC (P. morganii): > 100 µg/mL | MIC (S. enteritidis): 1.6 µg/mL (≈ 3.86 µM) | MIC (S. marcescens): 6.3 µg/mL (≈ 15.2 µM) | MIC (Pseudomonas aeruginosa; 61 strains of P. aeruginosa, Table 2, read-out: Geometric mean of MIC): 31.4 µg/mL (≈ 75.8 µM) | MIC (Pseudomonas aeruginosa; GN315, Pa-27 GN315 A21294, Mueller-Hinton agar, Table 2, read-out: MIC): 50 µg/mL (≈ 121 µM) | MIC (Pseudomonas aeruginosa; GN4925, Pa-45 GN4925, Mueller-Hinton agar, Table 2, read-out: MIC): 50 µg/mL (≈ 121 µM) | MIC (Pseudomonas aeruginosa; P. aeruginosa A9843, Mueller-Hinton agar, Table 1, read-out: MIC): 25 µg/mL (≈ 60.3 µM) | MIC (Pseudomonas aeruginosa; P. aeruginosa A9930, Mueller-Hinton agar, Table 1, read-out: MIC): 12.5 µg/mL (≈ 30.2 µM) | MIC (Pseudomonas aeruginosa; P. aeruginosa A15150, Mueller-Hinton agar, Table 1, read-out: MIC): 12.5 µg/mL (≈ 30.2 µM) | MIC (Pseudomonas aeruginosa; P. aeruginosa A20229, Mueller-Hinton agar, Table 1, read-out: MIC): 12.5 µg/mL (≈ 30.2 µM) | MIC (Pseudomonas aeruginosa; P. aeruginosa A20717, Mueller-Hinton agar, Table 1, read-out: MIC): 100 µg/mL (≈ 241 µM) | MIC (Pseudomonas aeruginosa; Pa-2 VA A9923, Mueller-Hinton agar, Table 2, read-out: MIC): 12.5 µg/mL (≈ 30.2 µM) | MIC (Pseudomonas aeruginosa; Pa-3 1449VA A9930, Mueller-Hinton agar, Table 2, read-out: MIC): 6.3 µg/mL (≈ 15.2 µM) | MIC (Pseudomonas aeruginosa; Pa-4 H9 D113 A21295, Mueller-Hinton agar, Table 2, read-out: MIC): 25 µg/mL (≈ 60.3 µM) | MIC (Pseudomonas aeruginosa; Pa-6 No. 5 A15194, Mueller-Hinton agar, Table 2, read-out: MIC): > 100 µg/mL | MIC (Pseudomonas aeruginosa; Pa-10 A20479, Mueller-Hinton agar, Table 2, read-out: MIC): > 100 µg/mL | MIC (Pseudomonas aeruginosa; Pa-12 A20653, Mueller-Hinton agar, Table 2, read-out: MIC): 50 µg/mL (≈ 121 µM) | MIC (Pseudomonas aeruginosa; Pa-15 A20717, Mueller-Hinton agar, Table 2, read-out: MIC): 100 µg/mL (≈ 241 µM) | MIC (Pseudomonas aeruginosa; Pa-16 #130 A20718, Mueller-Hinton agar, Table 2, read-out: MIC): 6.3 µg/mL (≈ 15.2 µM) | MIC (Pseudomonas aeruginosa; Pa-17 H6 D114, Mueller-Hinton agar, Table 2, read-out: MIC): 12.5 µg/mL (≈ 30.2 µM) | MIC (Pseudomonas aeruginosa; Pa-18 H8 D121, Mueller-Hinton agar, Table 2, read-out: MIC): 12.5 µg/mL (≈ 30.2 µM) | MIC (Pseudomonas aeruginosa; Pa-19 A20229, Mueller-Hinton agar, Table 2, read-out: MIC): 12.5 µg/mL (≈ 30.2 µM) | MIC (Pseudomonas aeruginosa; Pa-23 A20741, Mueller-Hinton agar, Table 2, read-out: MIC): 50 µg/mL (≈ 121 µM) | MIC (Pseudomonas aeruginosa; Pa-24 A20896, Mueller-Hinton agar, Table 2, read-out: MIC): 100 µg/mL (≈ 241 µM) | MIC (Pseudomonas aeruginosa; Pa-25 A20897, Mueller-Hinton agar, Table 2, read-out: MIC): 12.5 µg/mL (≈ 30.2 µM) | MIC (Pseudomonas aeruginosa; Pa-26 Ps32, Mueller-Hinton agar, Table 2, read-out: MIC): 12.5 µg/mL (≈ 30.2 µM) | MIC (Pseudomonas aeruginosa; Pa-28 CPH10527/72, Mueller-Hinton agar, Table 2, read-out: MIC): 50 µg/mL (≈ 121 µM) | MIC (Pseudomonas aeruginosa; Pa-29 D122, Mueller-Hinton agar, Table 2, read-out: MIC): 25 µg/mL (≈ 60.3 µM) | MIC (Pseudomonas aeruginosa; Pa-31 A20594, Mueller-Hinton agar, Table 2, read-out: MIC): 12.5 µg/mL (≈ 30.2 µM) | MIC (Pseudomonas aeruginosa; Pa-33 A20598, Mueller-Hinton agar, Table 2, read-out: MIC): 100 µg/mL (≈ 241 µM) | MIC (Pseudomonas aeruginosa; Pa-35, Mueller-Hinton agar, Table 2, read-out: MIC): 100 µg/mL (≈ 241 µM) | MIC (Pseudomonas aeruginosa; Pa-36, Mueller-Hinton agar, Table 2, read-out: MIC): 1.6 µg/mL (≈ 3.86 µM) | MIC (Pseudomonas aeruginosa; Pa-37 A20130, Mueller-Hinton agar, Table 2, read-out: MIC): 50 µg/mL (≈ 121 µM) | MIC (Pseudomonas aeruginosa; Pa-38 A20349, Mueller-Hinton agar, Table 2, read-out: MIC): 50 µg/mL (≈ 121 µM) | MIC (Pseudomonas aeruginosa; Pa-42 A21229, Mueller-Hinton agar, Table 2, read-out: MIC): > 100 µg/mL | MIC (Pseudomonas aeruginosa; Pa-43 A21233, Mueller-Hinton agar, Table 2, read-out: MIC): 50 µg/mL (≈ 121 µM) | MIC (Pseudomonas aeruginosa; Pa-44 A21274, Mueller-Hinton agar, Table 2, read-out: MIC): 50 µg/mL (≈ 121 µM) | MIC (Pseudomonas aeruginosa; Pa-54 A20128, Mueller-Hinton agar, Table 2, read-out: MIC): 50 µg/mL (≈ 121 µM) | MIC (Pseudomonas aeruginosa; Pa-58 A20557, Mueller-Hinton agar, Table 2, read-out: MIC): 50 µg/mL (≈ 121 µM) | MIC (Pseudomonas aeruginosa; Pa-59 A20574, Mueller-Hinton agar, Table 2, read-out: MIC): 50 µg/mL (≈ 121 µM) | MIC (Pseudomonas aeruginosa; Pa-60 A20602, Mueller-Hinton agar, Table 2, read-out: MIC): 12.5 µg/mL (≈ 30.2 µM) | MIC (Pseudomonas aeruginosa; Pa-61 A20726, Mueller-Hinton agar, Table 2, read-out: MIC): 50 µg/mL (≈ 121 µM) | MIC (Pseudomonas aeruginosa; Pa-62 A21213, Mueller-Hinton agar, Table 2, read-out: MIC): > 100 µg/mL | MIC (Pseudomonas aeruginosa; Pa-67 A21509, Mueller-Hinton agar, Table 2, read-out: MIC): 50 µg/mL (≈ 121 µM) | MIC (Pseudomonas aeruginosa; Pa-68 A21510, Mueller-Hinton agar, Table 2, read-out: MIC): 50 µg/mL (≈ 121 µM) | MIC (Pseudomonas aeruginosa; Pa-69 A21587, Mueller-Hinton agar, Table 2, read-out: MIC): 50 µg/mL (≈ 121 µM) | MIC (Pseudomonas aeruginosa; Pa-70 K-Ps102 (CR-102), Mueller-Hinton agar, Table 2, read-out: MIC): 25 µg/mL (≈ 60.3 µM) | MIC (Pseudomonas sp.): 3.1 µg/mL (≈ 7.48 µM)
